In patent publication EP4566586A1, “SKIN-CARE PRODUCT COMPOSITION AND PHARMACEUTICAL COMPOSITION COMPRISING SULFONATED CALIXARENE, AND USE OF SULFONATED CALIXARENE” (Calix Biotechnology (Hangzhou) Co., Ltd, priority 2022, dated 2024):
Converted amounts (≈) assume the structure as drawn. Marks after values point to notes of the source that are not given here.

Legend:
[1] = UV titration, binding constants between SC8A-12C and skincare active substances; conditions: 25°C, 1:1 host-guest direct binding model; for Binding constants Ka: host SC8A-12C, active substance 15 µM in deionized water
Method: (§1) Test Method: UV titration.
Test Equipment: A Japan Shimadzu UV-3600 UV-Visible Spectrophotometer, equipped with a temperature control module (model: PTC-348WI), was used. The samples were tested using Shimadzu's quartz cuvettes with an optical path length of 10 mm.
(§2) Reagents: Vitamin A (Va) was purchased from Shanghai Macklin Biochemical Technology Co., Ltd, retinoic acid was purchased from Heowns Biochem Technologies, LLC, Tianjin, and other skincare active substances were commercially available products.
Va was dissolved in methanol to a concentration of 2 mM. During the test, the Va stock solution was added to a cuvette and adjusted to a volume of 3 mL with deionized water, resulting in a concentration of 10 µM. […] The binding constant Kα for the host-guest inclusion was determined.
During the test, the retinoic acid stock solution was added to a cuvette and adjusted to a volume of 3 mL with deionized water, resulting in a concentration of 15 µM.
During the test, the stock solution of the active substance was added to a cuvette and adjusted to a volume of 3 mL with deionized water, resulting in a concentration of 15 µM. […] The UV titration data were fitted using a 1:1 host-guest direct binding model to determine the binding constant Kα for the host-guest inclusion.

[2] = Solubilization of Vitamin A by sulfonated calixarene (UV absorption); assay type: physicochemical
Method: Testing Method: UV Absorption Spectroscopy.
In 3 mL of deionized water, 5 mg (an excess amount) of Vitamin A was added, and the mixture was shaken overnight. The mixture was then centrifuged to collect the supernatant, and the UV Absorption Curve of the supernatant was measured (Figure 5).
Excess Va was added to each of these three solutions at a concentration of 5 mg/mL and shaken on a shaker to enhance the solubility of Va. After 24 hours, each group of solution was diluted 40-fold for UV absorption wavelength measurement. Meanwhile, Va was dissolved in methanol solution to prepare a 4 mM Va methanol stock solution. The Va methanol stock solution was then diluted in water to prepare a 5 µM Va standard solution with methanol as a solvent aid, which was used for UV absorption wavelength measurement.
An excess amount of Va was added to each of these solutions at 5 mg/mL, and the solutions were agitated on a shaking table to enhance the solubility of Va. After 24 hours, each group of solutions was diluted by an appropriate multiple (to fit the standard working curve described below) and used for the measurement of UV absorbance intensity.
A standard working curve for Va was prepared. A methanol solution containing 4 mM of Va was prepared. […] Subsequently, the UV absorbance intensities of these six groups of solutions with different concentrations of Va were measured, and a standard working curve was prepared.

[3] = Stabilization of Va by SC8A-12C (UV-visible spectrophotometry); assay type: physicochemical; conditions: free Va, methanol as a solvent aid, stored for two days in the dark
Method: Testing Method: UV-Visible Spectrophotometry.
Va was dissolved in methanol to prepare a Va methanol solution with a concentration of 4 mM, which was then kept in the dark for two days. The UV absorptions of both the freshly prepared and the two-day stored Va methanol solutions were tested. During the testing, the Va methanol solution was first added to a cuvette, and deionized water was used to adjust the volume to 3 mL, achieving a final concentration of Va at 10 µM.

[4] = Skin permeability test of Va (transdermal diffuser); assay type: in vitro ADME; conditions: Va 0.4% (w/w), pig skin, 37°C, 55 hours
Method: Undamaged sections were cut into uniform thickness pieces approximately 2 cm × 2 cm in size, wrapped in plastic wrap, and stored at -20°C for later use. 0.8 mg of Va and 200 mg of skincare cream (ointment base) were weighed and added to a mortar. The mixture was thoroughly ground to dissolve Va in the skincare cream, resulting in a Va concentration of 0.4% (w/w). Subsequently, 0.8 mg of Va was weighed and dispersed in 200 µL of water by thoroughly shaking to prepare a suspension of Va (water base), with a Va concentration of 0.4% (w/w). […] The concentration of Va in the inclusion complex was also 0.4% (w/w). The skin was placed between the diffusion and receptor compartments after thawing. The receptor compartment was filled with the receptor solution (deionized water), and all air bubbles were expelled. The receptor compartment was maintained at 37°C in a circulating water bath throughout the experiment. The transdermal diffuser was activated, with a magnetic stirring speed set at 300 r·min^-1. After 55 hours, the solutions from the receptor compartments of each group were collected for UV detection.

physchem = conditions: water
Method: Test Method: UV Absorption Spectroscopy.
The UV absorption intensities were measured, and a standard working curve was prepared. […] The mixtures were shaken overnight and then centrifuged to collect the supernatant for UV absorption curve detection.

[5] = UV titration, binding constants between SC8A-12C and skincare active substances; conditions: host SC8A-12C, active substance 15 µM in deionized water, 25°C, 1:1 host-guest direct binding model
Method: as §1, §2
Va was dissolved in methanol to a concentration of 2 mM. During the test, the Va stock solution was added to a cuvette and adjusted to a volume of 3 mL with deionized water, resulting in a concentration of 10 µM. […] The change in UV absorption intensity was recorded after each addition of the SC8A-12C stock solution. […] The binding constant Kα for the host-guest inclusion was determined.
SC8A-12C stock solution and retinoic acid stock solution were first prepared. […] During the test, the retinoic acid stock solution was added to a cuvette and adjusted to a volume of 3 mL with deionized water, resulting in a concentration of 15 µM. […] The change in UV absorption intensity was recorded after each addition of the SC8A-12C stock solution.
During the test, the stock solution of the active substance was added to a cuvette and adjusted to a volume of 3 mL with deionized water, resulting in a concentration of 15 µM. […] The change in UV absorption intensity was recorded after each addition of the SC8A-12C stock solution. […]

[6] = Solubilization of Retinoic acid by sulfonated calixarene (UV absorption); assay type: physicochemical; conditions: 5 mg retinoic acid in 3 mL deionized water, shaken overnight, supernatant UV
Method: Testing Equipment: A Japan Shimadzu UV-3600 UV-Visible Spectrophotometer, equipped with a temperature control module (model: PTC-348WI), was used. The samples were tested using Shimadzu's quartz cuvettes with an optical path length of 10 mm.
Excess retinoic acid was added to each of the three groups of solutions at a concentration of 5 mg/mL, followed by ultrasonic treatment to enhance the solubility of retinoic acid. After 20 mins, each group of solution was diluted 10-fold for UV absorption wavelength measurement. At the same time, 5 mg (an excess amount) of retinoic acid was added to 3 mL of deionized water, the mixture was shaken overnight, centrifuged to obtain the supernatant. […] Retinoic acid was dissolved in methanol solution to prepare a stock solution of 4 mM retinoic acid in methanol. After 20 mins, the stock solution of retinoic acid in methanol was diluted in water to prepare a retinoic acid standard solution with an appropriate concentration, for UV absorption wavelength detection. […]
A standard working curve for retinoic acid was prepared. […] Subsequently, the UV absorbance intensities of these six groups of solutions with different concentrations of retinoic acid were measured, and a standard working curve was prepared.

[7] = Skin permeability test of retinoic acid (transdermal diffuser); assay type: in vitro ADME; conditions: ointment base (cream), retinoic acid 1% (w/w), pig skin, 37°C, 24 hours
Method: Testing Method: Skin Permeability Test
Testing Equipment: TP-6 Intelligent Transdermal Diffuser (Tianjin Jingtuo Instrument Technology Co., Ltd.)
Undamaged sections were cut into uniform thickness pieces, approximately 2 cm × 2 cm in size, wrapped in plastic wrap, and stored at -20°C for later use.
The concentration of retinoic acid in the inclusion complex was determined by UV detection, and subsequently diluted to 0.1% (w/w). Additionally, 3 mg of retinoic acid was weighed and mixed with 297 mg of cream in a mortar. The mixture was thoroughly ground to dissolve retinoic acid in the cream, resulting in a retinoic acid concentration of 1% (w/w).
The skin was placed between the diffusion and receptor compartments after thawing. The receptor compartment was filled with the receptor solution (deionized water), and all air bubbles were expelled. The receptor compartment was maintained at 37°C in a circulating water bath throughout the experiment. The transdermal diffuser was activated, with a magnetic stirring speed set at 300 r·min^-1. After 24 hours, the solutions from the receptor compartments of each group were collected for UV detection.

Compound | Binding constants Ka [1] | further results
cocamidopropyl betaine | 0.8±0.1×10^4 M^-1 | 
O=S(=O)(O)c1cc2c(O)c(c1)Cc1cc(S(=O)(=O)O)cc(c1O)Cc1cc(S(=O)(=O)O)cc(c1O)Cc1cc(S(=O)(=O)O)cc(c1O)C2 [SC4A, Sulfonated calix[4]arene] |  | solubilization of Va [2]: failed to solubilize Va
O=S(=O)(O)c1cc2c(O)c(c1)Cc1cc(S(=O)(=O)O)cc(c1O)Cc1cc(S(=O)(=O)O)cc(c1O)Cc1cc(S(=O)(=O)O)cc(c1O)Cc1cc(S(=O)(=O)O)cc(c1O)Cc1cc(S(=O)(=O)O)cc(c1O)Cc1cc(S(=O)(=O)O)cc(c1O)Cc1cc(S(=O)(=O)O)cc(c1O)C2 [SC8A, Sulfonated calix[8]arene] |  | solubilization of Va [2]: failed to solubilize Va
vitamin A | 4.4±0.5×10^5 M^-1 | binding constant Kα of SC8A-12C ([1]; guest Va 10 µM (317 nm) or retinoic acid 15 µM): (4.0 ± 0.5) ×10^5 M^-1; solubility of Va in water ([2]; 5 mg Va in 3 mL deionized water, shaken overnight, supernatant UV): almost insoluble; [dissolved Va] ([2]; [SC8A-12C] 0 µM, Not detected under UV): 0* µM; UV absorption of the Va aqueous solution after storage [3]: significantly decreased; Va in the receptor compartment ([4]; ointment base): no Va was detected; permeability of Va ([4]; water base (suspension)): not good enough
Nc1ccc(C(=O)OCC(O)CO)cc1 (stereo not shown) [glyceryl p-aminobenzoate] | 2.9±0.2×10^3 M^-1 | 
vitamin E | 2.6±0.4×10^3 M^-1 | 
OC[C@H]1O[C@@H](Oc2ccc(O)cc2)[C@H](O)[C@@H](O)[C@@H]1O [arbutin] | 4.3±0.5×10^3 M^-1 | 
OC[C@@H](O)[C@@H](O)[C@H](O)[C@@H](O)CO [sorbitol] | 5.3±0.4×10^3 M^-1 | 
CC(C)CCC[C@@H](C)[C@H]1CC[C@H]2[C@@H]3CC=C4C[C@@H](O)CC[C@]4(C)[C@H]3CC[C@]12C [cholesterol] | 2.3±0.5×10^5 M^-1 | 
α-bisabolol | 2.8±0.6×10^4 M^-1 | 
CCCCCCOC(=O)c1ccccc1C(=O)c1ccc(N(CC)CC)cc1O [diethylamino hydroxybenzoyl hexyl benzoate] | 3.8±0.3×10^3 M^-1 | 
CCCCCCCCCCO[C@@H]1O[C@H](CO)[C@@H](O)[C@H](O)[C@H]1O [decyl glucoside] | 3.3±0.5×10^4 M^-1 | 
CC(c1ccccc1)c1ccc(O)cc1O (stereo not shown) [phenylethyl resorcinol] |  | solubility (physchem): 4900 µg/mL (≈ 22.9 mM)
O=C(O)CCCCCCCC(=O)O [azelaic acid] | 5.2±0.1×10^3 M^-1 | 
ceramides | 6.5±0.2×10^3 M^-1 | 
palmitoyl tripeptide-5 |  | Binding constants Ka [5]: 6.3±0.6×10^3 M^-1
Cn1c(=O)c2c(ncn2C)n(C)c1=O [caffeine] | 3.2±0.8×10^3 M^-1 | 
O=C1O[C@H]([C@@H](O)CO)C(O)=C1O[C@H]1O[C@H](CO)[C@@H](O)[C@H](O)[C@H]1O [ascorbyl glucoside] | 5.2±0.3×10^3 M^-1 | 
CC1=C(/C=C/C(C)=C/C=C/C(C)=C/C(=O)O)C(C)(C)CCC1 [retinoic acid] |  | solubility of retinoic acid in water [6]: hardly soluble; retinoic acid in the receptor compartment (UV absorption peak) [7]: no absorption peak of retinoic acid was detected
sphingolipids | 2.5±0.5×10^3 M^-1 | 
proanthocyanidins | 2.6±0.3×10^3 M^-1 | 
